Test results from patent US20260242365A1, “USES OF CERTAIN 1,4-OXAZEPANE-2-CARBOXAMIDES AS DPP1 INHIBITORS” (Insmed Incorporated, priority 2023, published 2026).

Columns and labels:
[1] = target: T1, human DPP1 (Homo sapiens, UniProt P53634); experiment: Human DPP1 Enzyme IC50 Assay; type: biochemical; conditions: activated human DPP1 enzyme, H-Gly-Arg-AMC substrate
T1 construct: was first proteolytically processed into its mature form using recombinant human cathepsin L; purchased R&D Systems
Experimental: Recombinant human DPP1 enzyme (R&D Systems; Minneapolis, MN) was first proteolytically processed into its mature form using recombinant human cathepsin L (R&D Systems) in a buffer consisting of 20 mM citric acid pH 4.5, 150 mM NaCl, 1 mM EDTA and 10 mM DTT. Alternatively, a crude lysate of HL-60 cells (ATCC; Manassas, VA) is used as a source of human DPP1 enzyme in the assay. Lysate was prepared in 1% Triton X-100 in PBS at a concentration of 20,000 live cells per μL of lysis buffer and centrifuged at 16,000×g for 10 minutes at 4° C., after which supernatant was collected and flash-frozen in liquid nitrogen.
Test articles were applied to activated human DPP1 enzyme in Assay Buffer (25 mM MES pH 6.0, 50 mM NaCl, 5 mM DTT) in a total reaction volume of 125 μL. 25 μL of compound in Assay Buffer plus 5% DMSO was first added to 50 μL of activated human DPP1 enzyme at a concentration of 1 ng/μL and allowed to pre-incubate for 10 minutes at 37° C. after which 50 μL of 1000 μM H-Gly-Arg-AMC substrate (Bachem; St. Torrance, CA) was added, giving final substrate concentration of 400 μM and a final DMSO concentration of 1%. Substrate cleavage was measured for 90 minutes at 37° C., with fluorescence at Excitation/Emission 350/450 nm measured every 5 minutes. DPP1 concentration was interpolated based on its activity relative to a standard curve of activated human recombinant DPP1 enzyme. IC50 values for each compound were calculated via the XLFit (IDBS Version 5.3.1.3) Add-On to Microsoft Excel using the four parameter fit equation y=(A+ ((B−A)/(1+ ((C/x)^D)))), which appears as equation number 205 (4 Parameter Logistic Model or Sigmoidal Dose-Response Model) in XLFit. Default constraints were used for each Parameter.

[2] = system: Neutrophil elastase (NE); experiment: Neutrophil elastase activity in lysates of mouse bone marrow progenitor cells differentiated into neutrophils under DPP1 inhibitor; type: cell-based
Experimental: (§1) Male or female C57BL/6 mice at the age of 8-14 weeks were used.
(§2) The two femurs and two tibias were removed out of a single mouse and gauze was used to remove the muscles and residue tissues. A sterile environment for surgical instruments and surgical sites is maintained. The bones were put into one 15-mL tube with cold sterile RPMI medium and placed on ice until further processing is performed.
(§3) A fresh 50-mL tube is placed on ice and a fresh 40/70 μm cell strainer (CLS431750, Sigma) is inserted into the top of the Falcon tube. Both ends of two femurs and two tibias are cut with bone cutters and flush bone marrow of all bones from one single mouse are placed into the cell strainer. 5-mL of ice-cold RPMI (RPMI medium containing 10 mM HEPES, pH 7.4) was used for each femur or tibia using a blunt needle (25 G needle), totaling about 20 mL per tube.
(§4) The cell suspension is centrifuged at 600×g for 5 min at 4° C. and the supernatant is carefully discarded.
(§5) The cell pellet is resuspended in 400 μL of ice-cold MACS buffer (PH7.2 PBS plus 0.5% BSA and 2 mM EDTA) for one adult mouse (optimized for 4 bones/mouse).
(§6) 100 μL Direct Lineage Cell Depletion Cocktail (which is enough for 100 million cells depletion) is added. The components are mixed well and incubated for 10 min. at 2° C.-8° C.
(§7) Magnetic separation LS Column (MACS, Miltenyi, 130 042 401) is prepared by placing it in the magnetic field of MACS Separator and rinsing with 3 mL of ice-cold MACS buffer.
(§8) Cell suspension is applied onto the column. Flow-through containing unlabeled cells, representing the enriched lineage negative cells, is collected.
(§9) Column is washed with 3×3 mL of ice-cold MACS buffer. Unlabeled cells that pass through are collected, representing the enriched lineage negative cells, and combined with the flow-through from prior step.
(§10) The cell suspension is centrifuged at 600×g for 5 min at 4° C., and the supernatant is carefully discarded. The pellet is washed once with 10 mL ice cold IMDM medium (IMDM GlutaMax (Gibco, 31980030) plus 10% FCS and 1% PS).
(§11) The cell pellet is resuspended with 2 mL ice-cold complete IMDM medium and the cells are counted. The cells are then ready for neutrophil differentiation.
(§12) The resulting undifferentiated bone marrow cells are in complete IMDM medium (IMDM with 10% FBS and 1% antibiotics); and the concentration of cells is adjusted to 1×10^5 cells/mL, supplemented with 50 ng/ml of SCF (BioLegend, 579704) and 50 ng/ml of IL 3 (BioLegend, 575504). The cells are subgrouped and the respective DPP1 inhibitors are added accordingly. Cells are then cultivated in a flask at 37° C. for 3 days.
(§13) Cells are checked each day for expansion and maintaining a final concentration between 2-10×10^5 cells/ml. On day 3, cells are counted. 3-4 million cells for each group are harvested and lystates prepared for NSPs activity detection. The left cells are resuspended at 2× 10^5 cells/mL in fresh medium supplemented with 50 ng/ml of SCF, 50 ng/ml of IL 3 and 50 ng/ml of G-CSF (BioLegend, 574604). The DPP1 inhibitors are refreshed in the medium. Cells are then cultivated in a flask at 37° C. for another 2 days.
(§14) On day 5, cells are counted. 3-4 million cells/condition are harvested and the cells are lysed to prepare samples for NSPs activity detection. The remaining cells are collected by centrifugation at 600×g for 5 min. The left cells are washed once in 1×PBS. After the wash, the pelleted cells are resuspended in complete IMDM medium at 4-6×10^5 cells/mL supplemented with 50 ng/ml of G-CSF only. The DPP1 inhibitors in the medium are refreshed. Cells incubate for additional 2 days, for a total of 7 days from day of harvest. On day 7, cells are counted. 3-4 million cells/condition are harvested and the cell lysed to prepare samples for NSPs activity detection.
(§15) 3-4 million cells are collected into Eppendorf tubes. Samples are spun down at 600×g, 4° C. for 5 min. The supernatant is removed and resuspended in 1 mL PBS. […]

[3] = system: proteinase 3 (PR3); experiment: PR3 activity in lysates of mouse bone marrow progenitor cells differentiated into neutrophils under DPP1 inhibitor; type: cell-based
Experimental: as §1, §2, §3, §4, §5, §6, §7, §8, §9, §10, §11, §12, §13, §14, §15

T1 sequence (P53634 25-134 limits assumed): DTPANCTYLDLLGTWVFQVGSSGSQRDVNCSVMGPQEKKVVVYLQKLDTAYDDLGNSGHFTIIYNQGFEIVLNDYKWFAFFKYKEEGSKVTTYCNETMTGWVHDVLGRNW
T1 sequence (P53634 231-394 limits assumed): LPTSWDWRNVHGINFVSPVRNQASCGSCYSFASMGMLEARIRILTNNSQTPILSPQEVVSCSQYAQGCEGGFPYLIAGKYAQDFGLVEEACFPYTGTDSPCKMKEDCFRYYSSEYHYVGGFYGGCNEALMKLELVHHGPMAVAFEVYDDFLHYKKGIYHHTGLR
T1 sequence (P53634 395-463 limits assumed): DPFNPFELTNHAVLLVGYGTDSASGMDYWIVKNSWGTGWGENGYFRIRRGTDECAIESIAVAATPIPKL

Cn1c(=O)oc2ccc(-c3ccc(C[C@@H](C#N)NC(=O)[C@@H]4CNC[C@H](O)CO4)cc3)cc21 (single isomer, unassigned) [INSM-201, (2S,6S*)—N-[(1S)-1-cyano-2-[4-(3-methyl-2-oxo-2,3-dihydro-1,3-benzoxazol-5-yl)phenyl]ethyl]-6-hydroxy-1,4-oxazepane-2-carboxamide]
IC50 [1]: 2.03 ± 0.2 nM
reduction in NE activity [2]: concentration-dependent reduction in NE activity
Neutrophil Elastase Activity (% reduction from control) ([2]; 0.02 μM, Day 3): 67%
Neutrophil Elastase Activity (% reduction from control) ([2]; 0.02 μM, Day 5): 42%
Neutrophil Elastase Activity (% reduction from control) ([2]; 0.02 μM, Day 7): 78%
Neutrophil Elastase Activity (% reduction from control) ([2]; 0.1 μM, Day 3): 83%
Neutrophil Elastase Activity (% reduction from control) ([2]; 0.1 μM, Day 5): 83%
Neutrophil Elastase Activity (% reduction from control) ([2]; 0.1 μM, Day 7): 84%
maximum inhibition of NE activity observed ([2]; at 0.1 μM regardless of day): ~ 85%
NE inhibition at low dose, fluctuations depending on the day (range) ([2]; low dose, range over days): 42-78%
reduction in PR3 activity [3]: concentration-dependent reduction in PR3 activity
PR3 Activity (% reduction from control) ([3]; 0.02 μM, Day 3): 45%
PR3 Activity (% reduction from control) ([3]; 0.02 μM, Day 5): 36%
PR3 Activity (% reduction from control) ([3]; 0.02 μM, Day 7): 72%
PR3 Activity (% reduction from control) ([3]; 0.1 μM, Day 3): 79%
PR3 Activity (% reduction from control) ([3]; 0.1 μM, Day 5): 96%
PR3 Activity (% reduction from control) ([3]; 0.1 μM, Day 7): 96%
max inhibition of PR3 activity observed ([3]; at 1 μM on D5 and D7): ~ 95%
PR3 inhibition at low dose, fluctuations depending on the day (range) ([3]; low dose, range over days): 36%-72%

COC1CNC[C@@H](C(=O)N[C@H](C#N)Cc2ccc(-c3ccc4oc(=O)n(C)c4c3)cc2)OC1 (mixture of isomers) [INSM-202, (6-rac)-(2S)—N-[(1S)-1-cyano-2-[4-(3-methyl-2-oxo-2,3-dihydro-1,3-benzoxazol-5-yl)phenyl]ethyl]-6-methoxy-1,4-oxazepane-2-carboxamide]
IC50 [1]: 1.03 ± 0.1 nM
Neutrophil Elastase Activity (% reduction from control) ([2]; 0.02 μM, Day 3): 86%
Neutrophil Elastase Activity (% reduction from control) ([2]; 0.02 μM, Day 5): 80%
Neutrophil Elastase Activity (% reduction from control) ([2]; 0.02 μM, Day 7): 89%
Neutrophil Elastase Activity (% reduction from control) ([2]; 0.1 μM, Day 3): 78%
Neutrophil Elastase Activity (% reduction from control) ([2]; 0.1 μM, Day 5): 90%
Neutrophil Elastase Activity (% reduction from control) ([2]; 0.1 μM, Day 7): 88%
maximum inhibition of NE activity observed ([2]; regardless of day): ~ 85%
PR3 Activity (% reduction from control) ([3]; 0.02 μM, Day 3): 94%
PR3 Activity (% reduction from control) ([3]; 0.02 μM, Day 5): 95%
PR3 Activity (% reduction from control) ([3]; 0.02 μM, Day 7): 93%
PR3 Activity (% reduction from control) ([3]; 0.1 μM, Day 3): 94%
PR3 Activity (% reduction from control) ([3]; 0.1 μM, Day 5): 96%
PR3 Activity (% reduction from control) ([3]; 0.1 μM, Day 7): 98%
max inhibition of PR3 activity observed ([3]; regardless of day): ~ 95%

COC1CNC[C@@H](C(=O)N[C@H](C#N)Cc2ccc(-c3ccc4oc(=O)n(C)c4c3)cc2)OC1 (single isomer, unassigned) [INSM-203, (2S,6R*)—N-[(1S)-1-cyano-2-[4-(3-methyl-2-oxo-2,3-dihydro-1,3-benzoxazol-5-yl)phenyl]ethyl]-6-methoxy-1,4-oxazepane-2-carboxamide]
IC50 [1]: 0.6 ± 0.1 nM
Neutrophil Elastase Activity (% reduction from control) ([2]; 0.02 μM, Day 3): 89%
Neutrophil Elastase Activity (% reduction from control) ([2]; 0.02 μM, Day 5): 82%
Neutrophil Elastase Activity (% reduction from control) ([2]; 0.02 μM, Day 7): 84%
Neutrophil Elastase Activity (% reduction from control) ([2]; 0.1 μM, Day 3): 91%
Neutrophil Elastase Activity (% reduction from control) ([2]; 0.1 μM, Day 5): 84%
Neutrophil Elastase Activity (% reduction from control) ([2]; 0.1 μM, Day 7): 86%
maximum inhibition of NE activity observed ([2]; regardless of day): ~ 85%
concentration by which PR3 inhibition plateau is reached [3]: ≤ 0.02 µM
PR3 Activity (% reduction from control) ([3]; 0.02 μM, Day 3): 93%
PR3 Activity (% reduction from control) ([3]; 0.02 μM, Day 5): 93%
PR3 Activity (% reduction from control) ([3]; 0.02 μM, Day 7): 85%
PR3 Activity (% reduction from control) ([3]; 0.1 μM, Day 3): 94%
PR3 Activity (% reduction from control) ([3]; 0.1 μM, Day 5): 94%
PR3 Activity (% reduction from control) ([3]; 0.1 μM, Day 7): 84%
max inhibition of PR3 activity observed ([3]; regardless of day): ~ 90%
